Laboratory results from ChEMBL document CHEMBL1201862, “PubChem BioAssay data set” (2004).
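Briefly, cells in 96-well plates were exposed to five compound concentrations for 48 h, and endpoints were estimated by linear interpolation. GI50 marks 50% less growth.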 Activity calls are given as the source filed them. Cut-off read from the data, not from the text of the source: active = GI50 up to about 1.1 µM and inactive = higher.

How the values were obtained:
Experiment in all cases: DTP human tumour cell line panel, 48 h
SNB-78 = test system: SNB-78
KM-20L2 = test system: KM-20L2
M19-MEL = test system: M19-MEL
DMS-273 = test system: DMS-273
LXFL 529 = test system: LXFL 529
XF498 = test system: XF498
HOP-18 = test system: HOP-18
DMS-114 = test system: DMS-114
RXF 631 = test system: RXF 631

Measured: GI50

Cc1cc(C)n(-c2ccnc3cc(Cl)ccc23)n1
inactive: SNB-78 > 100 µM | KM-20L2 > 100 µM | M19-MEL > 100 µM | DMS-273 > 100 µM | LXFL 529 > 100 µM | XF498 > 100 µM | HOP-18 > 100 µM | DMS-114 > 100 µM

Cc1csc(=S)n1OC(=O)NC1CCCCC1
inactive: SNB-78 97.7 µM | M19-MEL 16.5 µM | DMS-273 > 49.4 µM | LXFL 529 13.8 µM | XF498 > 100 µM | DMS-114 12.3 µM

COC1(OC)CC2C(=O)N(Cc3ccccc3)C1CC2S(=O)(=O)c1ccccc1 (stereo unspecified)
inactive: M19-MEL > 100 µM | DMS-273 > 100 µM | XF498 33.4 µM | HOP-18 > 100 µM | DMS-114 > 100 µM

O=[As](O)(O)c1cc(/N=N/c2ccc(-c3ccc(/N=N/c4cc([As](=O)(O)O)c(O)cc4O)cc3)cc2)c(O)cc1O
inactive: SNB-78 > 100 µM | KM-20L2 > 100 µM | M19-MEL > 100 µM | DMS-273 > 100 µM | LXFL 529 > 100 µM | HOP-18 > 100 µM | DMS-114 > 80.4 µM | RXF 631 > 100 µM

CCCCCCCCCC(=O)CC(=O)c1ccc(O)cc1O
inactive: KM-20L2 38 µM | DMS-273 28.2 µM | LXFL 529 30.5 µM | HOP-18 20.1 µM

Cc1ccc(NC(=S)SCCC(=O)O)cc1
inactive: SNB-78 > 100 µM | KM-20L2 > 100 µM | DMS-273 > 100 µM | LXFL 529 > 100 µM | DMS-114 > 100 µM | RXF 631 > 100 µM

CCOc1ccc(NC2=NC(=O)C(CC(=O)Nc3ccccc3[N+](=O)[O-])S2)cc1 (stereo unspecified)
inactive: SNB-78 > 100 µM | KM-20L2 > 100 µM | M19-MEL > 100 µM | DMS-273 > 100 µM | LXFL 529 > 100 µM | XF498 > 100 µM | DMS-114 > 100 µM

CCC12C=CCN3CCC4(C(=C(C(=O)OC)C1)Nc1ccccc14)[C@H]32 (stereo partly specified)
inactive: KM-20L2 19.8 µM | M19-MEL 31.3 µM | DMS-273 17.9 µM | LXFL 529 31.6 µM | HOP-18 26.5 µM | DMS-114 19.2 µM

O=C(NCCNCCO)N/N=C/c1ccccc1
inactive: SNB-78 > 100 µM | DMS-273 > 100 µM | LXFL 529 > 100 µM | XF498 > 100 µM | HOP-18 > 100 µM | DMS-114 > 100 µM

CCC12C=CCN3CCC4(c5cc(C6(C(=O)OC)CCCCCc7c6[nH]c6ccccc76)c(OC)cc5N(C)C4C(O)(C(=O)OC)C1OC(C)=O)C32 (stereo unspecified)
inactive: SNB-78 2.78 µM | KM-20L2 2.03 µM | M19-MEL 2.51 µM | LXFL 529 1.84 µM | XF498 2.33 µM | HOP-18 2.34 µM | DMS-114 2.38 µM

CO[C@@]12CC(=O)/C(=C(O)\C=C\c3ccccc3)C(=O)[C@]1(OC)Cc1ccccc1O2
inactive: SNB-78 30.5 µM | KM-20L2 22.4 µM | M19-MEL 37.5 µM | LXFL 529 33.7 µM | XF498 43 µM | HOP-18 35.6 µM | DMS-114 44.8 µM | RXF 631 30.3 µM

Nc1nc(N)c(-c2ccccc2)c(CCC(=O)Nc2ccc(Cl)cc2)n1
inactive: SNB-78 > 100 µM | KM-20L2 > 100 µM | M19-MEL > 100 µM | DMS-273 > 100 µM | LXFL 529 > 100 µM | HOP-18 > 100 µM

Cn1cc(NC(=O)c2cc(NC(=O)CCCCCCCCC(=O)Nc3cc(C(=O)Nc4cc(C(=O)NCCC(N)N)n(C)c4)n(C)c3)cn2C)cc1C(=O)NCCC(=N)N
inactive: SNB-78 34.6 µM | KM-20L2 19.7 µM | M19-MEL 16.6 µM | DMS-273 17.1 µM | LXFL 529 27.2 µM | XF498 28.6 µM | HOP-18 25.9 µM | RXF 631 26.9 µM

Cc1cccc(NC(=O)C(=O)C(C(=O)c2ccc3ccccc3c2)C2OC(=O)c3ccccc32)c1C (stereo unspecified)
inactive: SNB-78 16.1 µM | KM-20L2 33 µM | M19-MEL 9.91 µM | DMS-273 13.8 µM | LXFL 529 9.55 µM | XF498 1.56 µM | DMS-114 7.67 µM | RXF 631 7.19 µM

O=c1cccccc1NCCNc1cccccc1=O
inactive: SNB-78 > 100 µM | KM-20L2 > 100 µM | M19-MEL > 100 µM | DMS-273 > 100 µM | LXFL 529 > 100 µM | XF498 > 100 µM | DMS-114 > 100 µM | RXF 631 > 100 µM

CCOC(=O)NC(=O)c1cn(C2OC(COC(=O)CCCCCCCCC(=O)OCC3OC(n4cc(C(=O)NC(=O)OCC)c(=O)[nH]c4=O)C4OC(C)(C)OC34)C3OC(C)(C)OC32)c(=O)[nH]c1=O (stereo unspecified)
inactive: SNB-78 > 100 µM | KM-20L2 67.6 µM | M19-MEL 26.9 µM | DMS-273 60.1 µM | LXFL 529 88.5 µM | XF498 67.1 µM | HOP-18 > 100 µM | DMS-114 93.1 µM | RXF 631 > 100 µM

OCc1ccc(C2CC(c3ccco3)=NN2c2ccccc2)o1 (stereo unspecified)
inactive: SNB-78 > 100 µM | KM-20L2 > 100 µM | M19-MEL > 100 µM | DMS-273 > 100 µM | LXFL 529 > 100 µM | XF498 > 100 µM | DMS-114 > 100 µM

COc1cc2ccc3c4cc(OC)c(OC(C)C)cc4cnc3c2cc1OC
inactive: SNB-78 > 100 µM | KM-20L2 > 100 µM | M19-MEL > 100 µM | LXFL 529 > 100 µM | HOP-18 > 100 µM | DMS-114 > 100 µM | RXF 631 > 100 µM

CCOC(=O)NC(=O)c1cn(CCOC(=O)CCCCCCCCC(=O)OCCn2cc(C(=O)NC(=O)OCC)c(=O)[nH]c2=O)c(=O)[nH]c1=O
inactive: SNB-78 > 100 µM | KM-20L2 > 100 µM | M19-MEL > 100 µM | DMS-273 > 100 µM | LXFL 529 > 100 µM | XF498 > 100 µM | HOP-18 > 100 µM | DMS-114 > 100 µM | RXF 631 > 100 µM

COC(=O)C1=C(C)N(NC(=O)c2cccc(Cl)c2)C(C)(O)C12CCOC2=O (stereo unspecified)
inactive: SNB-78 42.1 µM | KM-20L2 > 100 µM | M19-MEL > 100 µM | DMS-273 > 100 µM | LXFL 529 > 100 µM | XF498 > 100 µM | DMS-114 > 100 µM | RXF 631 > 100 µM

COc1cc(C(C#N)NNC(=O)c2ccccc2O)ccc1O (stereo unspecified)
inactive: SNB-78 3.2 µM | KM-20L2 29.4 µM | M19-MEL 3.58 µM | LXFL 529 1.6 µM | HOP-18 4.91 µM

Cc1c(O)c(O)cc[n+]1C1OC(CO)C(O)C1O (stereo unspecified)
inactive: SNB-78 > 100 µM | KM-20L2 > 100 µM | M19-MEL > 100 µM | DMS-273 > 100 µM | LXFL 529 33.1 µM | HOP-18 > 100 µM

Cc1cccc(Cl)c1NC(=O)c1cccc([N+](=O)[O-])c1O
inactive: SNB-78 71 µM | KM-20L2 41.4 µM | DMS-273 37.2 µM | LXFL 529 50.6 µM | XF498 32.2 µM | HOP-18 28.5 µM | DMS-114 25.8 µM | RXF 631 36.7 µM

N#CC(C#N)=C(N)/C(C#N)=C/c1ccc2[nH]ccc2c1
inactive: SNB-78 > 100 µM | KM-20L2 > 100 µM | M19-MEL > 100 µM | DMS-273 > 100 µM | HOP-18 71.4 µM | DMS-114 > 100 µM
